Results reported in patent US8975280B2, “Deoxynojirimycin and D-arabinitol analogs and methods of using” (The Chancellor, Masters and Scholars of The University of …, priority 2006, dated 2015).
Like-named read-outs stand apart in the source and are kept apart here.

Tests used:
[1] = biological target: T1, α-glucosidase II (Rattus norvegicus, UniProt A0A8I6GFL3); assay: In vitro inhibition of purified α-glucosidase II, (a) and (b) activities, 2-AA-labeled FOS substrates, HPLC; assay type: biochemical
T1 construct: Purified α-glucosidase I and II were purified from rat liver by known methods; from tissue; host or cells: rat liver
Experimental: (§1) All chromatography was performed at 30° C. The first solvent, solvent A, was acetonitrile and the second solvent, solvent B, was Milli-Q water. […] Samples (<50 μl) were injected in Milli-Q water/acetonitrile (3/7, v/v). All chromatography was controlled, including data collection and processing, using Waters Empower software. Glucose units were determined, following comparison with a 2-AA-labeled glucose oligomer ladder (derived from a partial hydrolysate of dextran) external standard using Peak Time software (developed in-house).
Purified α-glucosidase I and II were purified from rat liver by known methods. […] 2-AA-labeled FOS were isolated and purified as substrates for either α-glucosidase I or II. […] […] […] […] The reactions were stopped by the addition of 30 μl acetonitrile.

[2] = biological target: T2, α-glucosidase I (Rattus norvegicus, UniProt O88941); assay: In vitro inhibition of purified α-glucosidase I, 2-AA-labeled FOS substrates, HPLC; assay type: biochemical
T2 construct: Purified α-glucosidase I and II were purified from rat liver by known methods; from tissue; host or cells: rat liver
T2 sequence (O88941 1-834): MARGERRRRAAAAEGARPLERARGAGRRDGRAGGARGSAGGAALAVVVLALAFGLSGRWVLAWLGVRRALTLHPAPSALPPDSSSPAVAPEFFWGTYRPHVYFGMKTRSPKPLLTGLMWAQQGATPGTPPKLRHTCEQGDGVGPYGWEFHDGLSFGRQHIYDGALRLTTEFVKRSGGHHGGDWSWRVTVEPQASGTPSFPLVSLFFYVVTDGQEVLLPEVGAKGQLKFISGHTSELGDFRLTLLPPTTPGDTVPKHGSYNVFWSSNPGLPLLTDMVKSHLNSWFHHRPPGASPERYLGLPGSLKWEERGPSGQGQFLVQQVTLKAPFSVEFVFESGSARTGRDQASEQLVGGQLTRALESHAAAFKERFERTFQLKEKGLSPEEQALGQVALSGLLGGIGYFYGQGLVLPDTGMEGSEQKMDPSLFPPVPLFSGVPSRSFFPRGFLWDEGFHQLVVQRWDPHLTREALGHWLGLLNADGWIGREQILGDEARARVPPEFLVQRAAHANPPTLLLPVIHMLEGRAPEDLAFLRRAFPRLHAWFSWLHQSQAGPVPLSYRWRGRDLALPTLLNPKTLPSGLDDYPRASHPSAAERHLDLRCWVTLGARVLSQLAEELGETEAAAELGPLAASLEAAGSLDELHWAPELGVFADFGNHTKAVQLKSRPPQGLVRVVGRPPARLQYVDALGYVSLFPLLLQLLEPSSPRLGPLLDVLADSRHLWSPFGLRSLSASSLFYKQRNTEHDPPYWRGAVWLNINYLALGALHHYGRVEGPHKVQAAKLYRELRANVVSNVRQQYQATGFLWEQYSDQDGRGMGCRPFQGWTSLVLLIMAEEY
Experimental: as §1
Purified α-glucosidase I and II were purified from rat liver by known methods. […] 2-AA-labeled FOS were isolated and purified as substrates for either α-glucosidase I or II. Fluorescently-labeled substrates Glc1Man5GlcNAc1 (G1M5N), Glc2Man5GlcNAc1 (G2M5N), Glc3Man5GlcNAc1 (G3M5N) and Glc3Man9GlcNAc, (G3M9N2) were added to separate 1.5 ml centrifuge tubes with varying concentrations of imino sugar and dried under vacuum. […] Similarly, α-glucosidase II was incubated for 2 hours with G2M5N and 20 minutes with G1M5N. […] The reactions were stopped by the addition of 30 μl acetonitrile.

[3] = physiologically relevant substrates

T1 sequence (A0A8I6ADW9 1-525 partner): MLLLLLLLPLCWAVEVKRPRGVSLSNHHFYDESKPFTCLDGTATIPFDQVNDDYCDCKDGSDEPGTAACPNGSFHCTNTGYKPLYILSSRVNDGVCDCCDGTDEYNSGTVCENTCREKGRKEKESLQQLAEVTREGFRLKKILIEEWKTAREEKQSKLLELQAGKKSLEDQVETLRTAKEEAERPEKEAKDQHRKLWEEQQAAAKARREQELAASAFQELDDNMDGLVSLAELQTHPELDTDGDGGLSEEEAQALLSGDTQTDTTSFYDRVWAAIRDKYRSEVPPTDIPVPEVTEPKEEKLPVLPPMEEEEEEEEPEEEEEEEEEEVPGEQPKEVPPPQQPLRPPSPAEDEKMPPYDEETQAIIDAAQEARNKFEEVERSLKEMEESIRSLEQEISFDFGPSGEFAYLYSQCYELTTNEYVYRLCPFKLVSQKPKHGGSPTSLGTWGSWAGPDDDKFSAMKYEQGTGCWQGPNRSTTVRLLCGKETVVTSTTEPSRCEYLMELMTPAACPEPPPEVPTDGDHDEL

IC50 ([1]; heptamannose substrate Glc1Man7GlcNAc1, read-out: α-Glucosidase II (b) Glc1Man7GlcNAc1 IC50): 19200 ± 60 nM | IC50 ([1]; heptamannose substrate Glc2Man7GlcNAc1, read-out: α-Glucosidase II (a) Glc2Man7GlcNAc1 IC50): 11700 ± 700 nM | IC50 ([1]; pentamannose substrate Glc1Man5GlcNAc1, read-out: α-Glucosidase II (b) Glc1Man5GlcNAc1 IC50): 833 ± 180 nM | IC50 ([1]; pentamannose substrate Glc2Man5GlcNAc1, read-out: α-Glucosidase II (a) Glc2Man5GlcNAc1 IC50): 300 ± 100 nM | more potent in inhibiting glucosidase I than glucosidase II (a) ([2]; heptamannose substrates): over 300 times | more potent in inhibiting glucosidase I than glucosidase II (b) ([2]; heptamannose substrates): more than 500 times | inhibition of α-glucosidase I improved in comparison to NB-DNJ ([2]; pentamannose substrate): 40 fold | inhibition better for α-glucosidase I than α-glucosidase II (a) ([2]; pentamannose substrates): 20 times | inhibition better for α-glucosidase I than α-glucosidase II (b) ([2]; pentamannose substrates): 50 times | better at inhibiting glucosidase I than glucosidase II (a) and (b) activity [2, 3]: 300-500 times | better than NB-DNJ in inhibiting all triglucosylated structures [2, 3]: 25-50 times | IC50 ([2]; α-Glucosidase I Glc3Man5GlcNAc1 IC50, pentamannose substrate Glc3Man5GlcNAc1): 17 ± 1 nM | IC50 ([2]; α-Glucosidase I Glc3Man7GlcNAc1 IC50, heptamannose substrate Glc3Man7GlcNAc1): 37 ± 1 nM | IC50 ([2]; α-Glucosidase I Glc3Man9GlcNAc1 IC50, nonamannose substrate Glc3Man9GlcNAc1): 22 ± 2 nM
SMILES: [N-]=[N+]=Nc1ccc(NCCCCCCN2C[C@H](O)[C@@H](O)[C@H](O)[C@H]2CO)c([N+](=O)[O-])c1 [NAP-DNJ, N—(N′-{4′azido-2′-nitrophenyl)-6-aminohexyl)-deoxynojirimycin]
